From patent publication US9128097B2, “Method and kit for assessing viable cells” (ChemoMetec A/S, priority 2008, dated 2015)

What was measured:
bone marrow cells = assay: NAM/PI staining of bone marrow derived cells; type: cell-based, murine; details: bone marrow cells 93% viable; 10 μL NAM (100 μg pr. mL DMSO) to 90 μL cells
Procedure: Materials and Methods. The bone marrow cells were harvested aseptically in the laminarflow hood. Briefly, bilateral tibia and femur were aseptically removed, freed of surrounding soft tissue, and placed in a petri dish with 10 mL 70% ethanol. After 2 minutes they were transferred to ice cold PBS. The bone marrow cavity was then flushed with 5 ml cold PBS using a 5-ml syringe with a 27-gauge needle attached, and the cells were collected from each bone. The cells were centrifuged at 300 g for 10 min, the supernatant was discarded, and cells were washed twice. […] 90 μL bone marrow cellss (cell density 1.7×10^6, 93% viable determined using the NC-100 NucleoCounter system following the manufacturer's (ChemoMetec A/S) protocol) were added 10 μL NAM (N-(9-acridinyl)maleimide, Sigma, #01665, CAS no. 49759-20-8) dissolved in DMSO (100 μg NAM pr. mL DMSO) and mixed by pipetting. […] The cells were investigated using an Olympus IX50 fluorescence microscope, and images were captured using a Lumenera CCD camera and in-house developed software. PI and NAM fluorescence were detected using, respectively, U-MWG2 (green long pass: 510-550 nm) and U-MNUA2 (UV band pass, 330-385 nm) filter cubes (Olympus).

[1] = system: primary murine splenocytes; assay: NAM/PI staining of primary murine splenocytes; type: cell-based, C57BL/6 mouse; details: splenocytes 90% viable; 10 μL NAM (100 μg pr. mL DMSO) to 90 μL cells
Procedure: Materials and Methods. The spleen from a C57BL/6 mouse was placed in ice-cold PBS and gently ground using the end of a sterile syringe. The suspension was centrifuged at 300 g for 10 minutes; the pellet was resuspended in 1 mL 0.83% NH4Cl to lyse erythrocytes and incubated for 3 minutes on ice. The cells were then added 14 mL PBS and centrifuged at 300 g for 10 minutes. The splenocytes were resuspended in RPMI (Invitrogen, #61870) supplemented with 10% heat-inactivated fetal bovine serum (Invitrogen, #10108-165), 100 U/mL penicillin and 100 μg/mL streptomycin (Invitrogen, #15140-122). The cell clumps were allowed to sediment and were removed by pipetting, and the resulting single cell suspension was used. 90 μL splenocytes (cell density 1.7×10^6, 90% viable determined using the NC-100 NucleoCounter system following the manufacturer's (ChemoMetec A/S) protocol) were added 10 μL NAM (N-(9-acridinyl)maleimide, Sigma, #01665, CAS no. 49759-20-8) dissolved in DMSO (100 μg NAM pr. mL DMSO) and mixed by pipetting. […] The cells were investigated using an Olympus IX50 fluorescence microscope, and images were captured using a Lumenera CCD camera and in-house developed software. PI and NAM fluorescence were detected using, respectively, U-MWG2 (green long pass: 510-550 nm) and U-MNUA2 (UV band pass, 330-385 nm) filter cubes (Olympus).

[2] = system: bone marrow derived dendritic cells (BM-DCs); assay: Staining of bone marrow derived dendritic cells with labelling agent and PI; type: cell-based, murine; details: dendritic cells 97% viable; 10 μL NAM (100 μg pr. mL DMSO) to 90 μL cells
Text: Materials and Methods. Dendritic cells were developed from murine bone marrow derived cells as described by “Lutz, M. B., N. Kukutsch, A. L. Ogilvie, S. Rossner, F. Koch, N. Romani, and G. Schuler. 1999. An advanced culture method for generating large quantities of highly pure dendritic cells from mouse bone marrow. J Immunol Methods 223:77-92”. Bone marrow cells were harvested aseptically in the laminar flow hood as described in example 11. Washed and resuspended bone marrow cells were resuspended in RPMI 1640 (Invitrogen, #61870) supplemented with 10% heat-inactivated fetal bovine serum (Invitrogen, #10108-165), 100 U/mL penicillin and 100 μg/mL streptomycin (Invitrogen, #15140-122). […] 90 μL dendritic cells (cell density 1.2×10^6, 97% viable determined using the NC-100 NucleoCounter system following the manufacturer's (ChemoMetec A/S) protocol) were added 10 μL NAM (N-(9-acridinyl)maleimide, Sigma, #01665, CAS no. 49759-20-8) dissolved in DMSO (100 μg NAM pr. mL DMSO) and mixed by pipetting. […] The cells were investigated using an Olympus IX50 fluorescence microscope, and images were captured using a Lumenera CCD camera and in-house developed software. PI and NAM fluorescence were detected using, respectively, U-MWG2 (green long pass: 510-550 nm) and U-MNUA2 (UV band pass, 330-385 nm) filter cubes (Olympus). […]

For `O=C1C=CC(=O)N1c1c2ccccc2nc2ccccc12` [NAM, N-(9-acridinyl)maleimide], the “staining of cells (UV filter) versus PI positive cells” value (bone marrow cells) was “nearly all the primary bone marrow cells were stained by NAM”, the “staining of cells (UV filter) versus PI positive cells” value [1] was “nearly all the primary spleen cells were stained by NAM” and the “staining of cells (UV filter) versus PI positive cells” value [2] was “nearly all the dendritic cells were stained by NAM”.
